Laboratory results published in patent EP3315028B1, “USE OF INHIBITORS OF NLP PROTEINS AS PHYTOPHARMACEUTICALS FOR PLANT PATHOGEN CONTROL” (Kemijski Institut, priority 2016, dated 2018).

Columns and labels:
NLPPya [1] = target: T1, NLPPya (Pythium aphanidermatum, UniProt Q9SPD4); experiment: Infiltration of NLPs into tobacco leaves in the presence of compounds (inhibition of necrosis); format: in vivo; settings: compound at the final 1 mM concentration; NLPPya 250 nM; tobacco leaves (Figure 5)
Experimental: NLP proteins: NLPPya from the oomycete, Pythium aphanidermatum, was prepared in recombinant form by the use of heterologous expression system for protein production in Escherichia coli. NLPPp from oomycete Phytophthora parasitica was prepared in yeast Pichia pastoris. Proteins were purified with chromatographic procedures and stored in water solutions at -20 °C.
We have injected 50 µL of solution.

NLPPp = target: T2, NLPPp (Phytophthora nicotianae, UniProt Q9AT28); experiment: Interactions of compounds with NLP proteins determined by surface plasmon resonance (NLPPp); format: binding, Phytophthora parasitica; settings: Biacore T100, CM5 chip, Steady State Affinity model; 50 mM MES, 140 mM NaCl, 5 % DMSO, pH 5,8; 25 °C; n=number of titrations
T2 construct: made in house; host or cells: Pichia pastoris
T2 sequence (Q9AT28 20-237): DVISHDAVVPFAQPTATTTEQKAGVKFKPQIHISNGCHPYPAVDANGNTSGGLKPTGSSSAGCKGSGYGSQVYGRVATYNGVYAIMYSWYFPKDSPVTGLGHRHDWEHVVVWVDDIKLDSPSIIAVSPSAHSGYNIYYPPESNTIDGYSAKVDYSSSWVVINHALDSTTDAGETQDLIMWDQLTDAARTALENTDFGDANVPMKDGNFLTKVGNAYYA

NLPPya [2] = target: T1, NLPPya; experiment: Interactions of compounds with NLP proteins determined by surface plasmon resonance (NLPPya); format: binding; settings: Biacore T100, CM5 chip, Steady State Affinity model; 50 mM MES, 140 mM NaCl, 5 % DMSO, pH 5,8; 25 °C; n=number of titrations

T1 sequence (Q9SPD4 18-234 limits assumed): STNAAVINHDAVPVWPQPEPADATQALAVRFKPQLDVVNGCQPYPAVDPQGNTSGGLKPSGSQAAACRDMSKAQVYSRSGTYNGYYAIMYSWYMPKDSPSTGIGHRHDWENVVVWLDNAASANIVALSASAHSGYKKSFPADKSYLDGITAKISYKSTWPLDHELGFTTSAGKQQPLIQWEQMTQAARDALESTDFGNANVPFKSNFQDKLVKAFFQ

Row | SMILES | necrosis after infiltration of NLP proteins in the presence of compound (NLPPya [1]) | Kd (NLPPp) | Kd (NLPPya [2])
1 | Cc1ccc2occ(C3NC(C(=O)O)CS3)c(=O)c2c1 (stereo not drawn) [Compound I, 2-(6-methyl-4-oxochromen-3-yl)-1,3-thiazolidin-3-ium-4-carboxylate] | Necrosis was not visible |  | 
2 | COc1ccc(Nc2ccccc2C(=O)O)cc1 [Compound IIa, 2-[(4-methoxyphenyl)amino]benzoic acid] | Necrosis was not visible | 71.9 µM | 131 µM
3 | Cc1ccc(Nc2ccccc2C(=O)O)cc1 [IIb, 2-[(4-methylphenyl)amino]benzoic acid] |  | 83.2 µM | 98 µM
4 | O=C(O)c1ccccc1Nc1cccc(F)c1 [IIc, N-(3-Fluorophenyl)anthranilic acid] |  | 62.4 µM | 77.3 µM
5 | Cc1ccc(C)c(Nc2c(C(=O)O)cc([N+](=O)[O-])cc2[N+](=O)[O-])c1 [IId, 2-[(2,5-dimethylphenyl)amino]-3,5-dinitrobenzoic acid] |  | 39.7 µM | 
